Data taken from patent US5688938A, “Calcium receptor-active molecules” (priority 1995, dated 1997).
Entries after “also recorded” stand apart in the source; their conditions may differ.

What was measured:
Type in all cases: cell-based
[1] = biological target: T1, parathyroid cell calcium receptor (Bos taurus, UniProt P35384); experiment: cell-based
T1 sequence (P35384 21-1085 limits assumed): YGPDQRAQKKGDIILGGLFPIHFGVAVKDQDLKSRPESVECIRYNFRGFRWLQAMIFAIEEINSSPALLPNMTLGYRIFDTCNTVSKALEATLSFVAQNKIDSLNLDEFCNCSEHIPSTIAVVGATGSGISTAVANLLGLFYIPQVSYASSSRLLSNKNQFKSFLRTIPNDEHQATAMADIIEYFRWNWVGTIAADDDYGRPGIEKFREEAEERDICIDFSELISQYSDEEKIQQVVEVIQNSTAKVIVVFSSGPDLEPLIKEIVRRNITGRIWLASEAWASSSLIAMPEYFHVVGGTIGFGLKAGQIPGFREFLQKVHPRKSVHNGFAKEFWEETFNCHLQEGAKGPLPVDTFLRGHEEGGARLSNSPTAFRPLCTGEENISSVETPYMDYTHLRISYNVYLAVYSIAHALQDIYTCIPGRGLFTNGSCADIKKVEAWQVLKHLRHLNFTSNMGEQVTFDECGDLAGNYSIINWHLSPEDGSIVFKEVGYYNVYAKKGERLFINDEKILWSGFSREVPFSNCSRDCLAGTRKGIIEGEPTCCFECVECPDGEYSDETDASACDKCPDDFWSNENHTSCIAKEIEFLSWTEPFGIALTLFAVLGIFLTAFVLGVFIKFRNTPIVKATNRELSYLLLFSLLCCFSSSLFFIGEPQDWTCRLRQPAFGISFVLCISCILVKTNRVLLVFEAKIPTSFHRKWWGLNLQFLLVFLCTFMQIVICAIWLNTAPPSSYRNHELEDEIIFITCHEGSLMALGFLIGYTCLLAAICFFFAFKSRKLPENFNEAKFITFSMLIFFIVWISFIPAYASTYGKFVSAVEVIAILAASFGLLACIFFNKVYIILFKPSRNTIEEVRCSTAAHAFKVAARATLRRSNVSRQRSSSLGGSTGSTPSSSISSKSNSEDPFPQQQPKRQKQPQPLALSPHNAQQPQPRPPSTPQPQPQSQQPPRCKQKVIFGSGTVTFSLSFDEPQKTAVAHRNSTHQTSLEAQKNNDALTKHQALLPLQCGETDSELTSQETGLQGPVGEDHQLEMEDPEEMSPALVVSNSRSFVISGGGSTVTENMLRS

[2] = biological target: T2, human parathyroid cell calcium receptor (Homo sapiens, UniProt P41180); experiment: Cl^- current in Xenopus oocytes expressing cloned human parathyroid calcium receptor; conditions: for Cl^- current: 0.3 mM extracellular Ca^2+, NPS 019 3 to 30 μM
T2 construct: cRNA injected in Xenopus oocytes
T2 sequence (P41180 20-1078 R990G/E1011Q): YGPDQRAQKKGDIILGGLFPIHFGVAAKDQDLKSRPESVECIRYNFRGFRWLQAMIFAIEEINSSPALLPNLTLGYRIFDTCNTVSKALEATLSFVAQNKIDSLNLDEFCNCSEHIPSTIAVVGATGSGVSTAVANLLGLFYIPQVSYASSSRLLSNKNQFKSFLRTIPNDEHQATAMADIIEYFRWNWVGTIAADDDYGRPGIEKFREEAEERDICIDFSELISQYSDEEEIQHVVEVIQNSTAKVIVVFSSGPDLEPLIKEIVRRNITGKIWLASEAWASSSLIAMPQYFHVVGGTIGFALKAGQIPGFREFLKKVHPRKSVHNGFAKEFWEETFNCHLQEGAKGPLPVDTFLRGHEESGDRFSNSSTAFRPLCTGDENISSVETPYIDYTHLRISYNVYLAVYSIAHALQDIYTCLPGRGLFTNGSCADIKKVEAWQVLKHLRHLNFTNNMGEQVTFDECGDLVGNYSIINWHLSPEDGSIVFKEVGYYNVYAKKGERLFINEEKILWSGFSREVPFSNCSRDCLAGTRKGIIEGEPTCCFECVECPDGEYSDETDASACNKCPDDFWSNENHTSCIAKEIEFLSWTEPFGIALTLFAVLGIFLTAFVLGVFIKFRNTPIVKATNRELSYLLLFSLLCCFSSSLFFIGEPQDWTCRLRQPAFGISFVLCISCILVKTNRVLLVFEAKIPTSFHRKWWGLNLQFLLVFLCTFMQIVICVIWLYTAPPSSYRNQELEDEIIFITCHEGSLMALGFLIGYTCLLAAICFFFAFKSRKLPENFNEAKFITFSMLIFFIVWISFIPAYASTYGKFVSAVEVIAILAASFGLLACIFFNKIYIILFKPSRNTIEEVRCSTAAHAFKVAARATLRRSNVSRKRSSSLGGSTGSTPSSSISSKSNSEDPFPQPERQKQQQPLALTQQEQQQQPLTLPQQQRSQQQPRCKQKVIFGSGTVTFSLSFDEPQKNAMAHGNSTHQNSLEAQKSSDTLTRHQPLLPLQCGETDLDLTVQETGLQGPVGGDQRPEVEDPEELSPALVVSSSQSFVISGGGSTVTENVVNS
Procedure: Representative cDNA inserts for both size classes were subcloned into the plasmid vector pBluescript SK. Linearization followed by in vitro transcription using T7 RNA polymerase produced cRNA transcripts. The cRNA transcripts were injected into Xenopus oocytes (150 ng/μl RNA; 50 nl/oocyte) for functional analysis. Following incubation periods of 2-4 days, the oocytes were assayed for the presence of functional calcium receptors. Both clone types gave rise to functional calcium receptors as assessed by the stimulation of calcium-activated chloride currents upon addition of appropriate calcium receptor agonists. […] Thus, both clones encode a functional, human parathyroid cell calcium receptor.
Xenopus oocytes were injected with pHuPCaR 5.2, the 5.2 Kb cDNA encoding a parathyroid cell calcium receptor derived from a human parathyroid cell adenoma. (See Example 27.) After two to three days, Cl^- currents were measured in the oocytes using a two-electrode voltage clamp.

[3] = system: osteoclast calcium receptor; experiment: [Ca^2+]i (indo-1) in rat osteoclasts
[4] = biological target: T3, bovine parathyroid cell calcium receptor (Bos taurus, UniProt P35384); experiment: Cl^- current in Xenopus oocytes expressing BoPCaR 1
T3 construct: expressed in transfected cells; host or cells: Xenopus laevis oocytes injected with cRNA from BoPCaR 1
T3 sequence (P35384 21-1085 limits assumed): T1 sequence (P35384 21-1085 limits assumed)
Procedure: These responses are mediated by the following series of biochemical events:
Xenopus oocytes were injected with BoPCaR 1, the 5.3 Kb cDNA encoding a bovine parathyroid cell calcium receptor as described in Example 25. After two to three days, Cl^- currents were examined in the oocytes using a two-electrode voltage clamp.
Xenopus oocytes were injected with BoPCaR 1 as described in Example 25. After two to three days, Cl^- currents were examined in the oocytes using two electrode voltage clamp.

`NCCCNCCCCNCCCNCCCNCCCNC(=O)Cc1c[nH]c2ccccc12` [NPS 019, reference compound] was tested. Which EC50 ([1]; Table 6, bovine parathyroid cells, read-out: EC50 PARATHYROID) did it give?
The EC50 was 40 µM.

What about the “Cl^- current response in absence of extracellular Ca^2+” value [2] of the same compound?
The value was “persisted”.

And the “Cl^- current” value [2]?
The value was “evoked increases in the Cl^- current”.

What about the EC50 ([3]; Table 6, rat osteoclasts) of the same compound?
The EC50 was over 300 µM.

And the “Cl^- current response in absence of extracellular Ca^2+” value [4]?
Its value is “persisted”.

What about the “Cl^- current” value ([4]; 1 mM extracellular Ca^2+) of the same compound?
Its value is “oscillatory increases in the Cl^- current”.

Which results are given for `COc1cccc([C@@H](C)NCCCc2ccccc2Cl)c1` [NPS R-568, (R)-(+)-N-[3-(2-chlorophenyl)propyl]-α-methyl-3-methoxybenzylamine]?
[Ca^2+]i response in Ca^2+-free buffer ([1]; no extracellular Ca^2+, NPS R-467 30 μM): fails to evoke increases in [Ca^2+ ]i; Cl^- current response in absence of extracellular Ca^2+ [2]: abolished; Cl^- current [2]: evoked increases in the Cl^- current; activation of oocyte-expressed human receptor ([2]; pHuPCaR 5.2 and 4.0): activated the oocyte-expressed receptor at about the same concentrations; Cl^- current response in absence of extracellular Ca^2+ [4]: abolished; effect on concentration-response curve of NPS 019 [4]: shifts the concentration-response curve of NPS 019 to the left; effect on responses to submaximal extracellular Ca^2+ [4]: potentiated the responses

`NC[C@@H]1O[C@H](O[C@H]2[C@@H](O)[C@H](O[C@@H]3[C@@H](O)[C@H](N)C[C@H](N)[C@H]3O[C@H]3O[C@H](CN)[C@@H](O)[C@H](O)[C@H]3N)O[C@@H]2CO)[C@H](N)[C@@H](O)[C@@H]1O` [Neomycin] was tested. Which “effect on osteoclast response to extracellular Ca^2+” value [3] did it give?
The value was “did not block the increase”.

And the “increase in [Ca^2+]i in osteoclasts” value [3]?
The value was “failed to evoke any increase in [Ca^2+ ]i; also recorded: Neither neomycin (10 mM) nor spermine (10 or 20 mM) caused increases”.

And the “increase in [Ca^2+]i in osteoclasts or effect on basal” value ([3]; neomycin B 5 mM)?
Its value is “without effect on basal [Ca^2+ ]i”.

What about the inward currents ([4]; Ca^2+ 5 mM, Mg^2+ 1.0-20 mM, Gd^3+ 600 μM, neomycin 200 μM) of the same compound?
The inward currents was “large inward currents”.
